Data published in patent US20240368125A1, “NOVEL PYRAZINYL-TRIAZOLE COMPOUNDS AS PESTICIDES” (Bayer Aktiengesellschaft, priority 2021, published 2024).

Columns and labels:
Assay type in all cases: in vivo
[1] = system: larvae of the southern green stink bug (Nezara viridula); experiment: Nezara viridula spray test; details: for mortality at 500 g/ha: Nezara viridula, in Hordeum vulgare, 96 h; for mortality: 500 g/ha, barley plants, after 4 days
Method: Nezara viridula—Spray Test
(§1) Solvent: 78.0 parts by weight of acetone • • 1.5 parts by weight of dimethylformamide
(§2) Emulsifier: alkylarylpolyglycol ether
(§3) To produce a suitable preparation of active compound, 1 part by weight of active compound is mixed with the stated amount of solvent, and the concentrate is diluted with water, containing an emulsifier concentration of 1000 ppm, to the desired concentration. Further test concentrations are prepared by dilution with emulsifier containing water.
Barley plants (Hordeum vulgare) are sprayed with a test solution containing the desired concentration of the active ingredient and are infested with larvae of the southern green stink bug (Nezara viridula).
After 4 days mortality in % is determined. 100% means all the stink bugs have been killed; 0% means none of the stink bugs have been killed.

[2] = system: green peach aphid (Myzus persicae); experiment: Myzus persicae spray test (MYZUPE); details: 120 h; for mortality at 100 g/ha: in Brassica rapa, foliar; for Emax at 4 g/ha / Emax at 20 g/ha / Emax at 100 g/ha: MYZUPE, 5 dat, read-out: % Efficacy; for Emax at 4 g/ha: 4 g ai/ha; for Emax at 20 g/ha: 20 g ai/ha; for Emax at 100 g/ha: 100 g ai/ha
Method: Myzus persicae—Spray Test
(§4) Solvent: 78.0 parts by weight acetone • 1.5 parts by weight dimethylformamide
as §2
as §3, with “solvents” for “solvent,”, “and” for “and the concentrate”
Chinese cabbage (Brassica pekinensis) leaf disks infected with all instars of the green peach aphid (Myzus persicae), are sprayed with a preparation of the active ingredient of the desired concentration.
After 5 days mortality in % is determined. 100% means all aphids have been killed and 0% means none of the aphids have been killed.
Myzus persicae—Spray Test (MYZUPE
After the specified period of time, mortality in % is determined. 100% means all aphids have been killed and 0% means none of the aphids have been killed.

[3] = system: adult cat fleas (Ctenocephalides felis); experiment: Ctenocephalides felis in-vitro contact test, adult cat flea; details: Ctenocephalides felis; 1 μg/cm^2 (=100 g/ha), after 48 hours; read-out: efficacy (fleas dead or moribund)
Method: Ctenocephalides Felis—In-Vitro Contact Tests Adult Cat Flea
(§5) 9 mg compound is solved in 1 mL acetone and diluted with acetone to the desired concentration. 250 μL of the test solution is filled in 25 mL glass test tubes and homogeneously distributed on the inner walls by rotation and tilting on a shaking device (2 h at 30 rpm). With a compound concentration of 900 ppm, an inner surface of 44.7 cm^2 and a homogeneous distribution, a dose of 5 μg/cm^2 is achieved.
(§6) After the solvent has evaporated, each test tube is filled with 5-10 adult cat fleas (Ctenocephalides felis), closed with a perforated lid and incubated in a lying position at room temperature and relative humidity. After 48 hours efficacy is determined. The fleas are patted on the ground of the tubes and are incubated on a heating plate at 45-50° C. for at most 5 minutes. Immotile or uncoordinated moving fleas, which are not able to escape the heat by climbing upwards, are marked as dead or moribund.
An efficacy of 100% means all fleas are dead or moribund; 0% means no fleas are dead or moribund.

[4] = system: fall armyworm larvae (Spodoptera frugiperda); experiment: Spodoptera frugiperda spray test (SPODFR); details: 168 h; for mortality at 100 g/ha: in Zea mays
Method: Spodoptera frugiperda—Spray Test
as §4, §2
as §3, with “solvents” for “solvent,”, “and” for “and the concentrate”
Maize (Zea mays) leaf sections are sprayed with a preparation of the active ingredient of the desired concentration. Once dry, the leaf sections are infested with fall armyworm larvae (Spodoptera frugiperda).
After 7 days mortality in % is determined. 100% means all caterpillars have been killed and 0% means none of the caterpillars have been killed.
Spodoptera frugiperda—Spray Test (SPODFR
After the specified period of time, mortality in % is determined. 100% means all caterpillars have been killed and 0% means none of the caterpillars have been killed.

[5] = system: Rhipicephalus (Boophilus) microplus larvae (strain Parkhurst, resistant against synthetic pyrethroids); experiment: Rhipicephalus (Boophilus) microplus in-vitro contact test, larval cattle tick; details: 1 μg/cm^2 (=100 g/ha), after 48 hours; for pest or weed control at 1 µg/cm2: Rhipicephalus microplus, read-out: efficacy (larvae dead or moribund)
Method: Rhipicephalus (Boophilus) Microplus—In-Vitro Contact Tests Larval Cattle Tick (Strain Parkhurst, Resistant Against Synthetic Pyrethroids
as §5
After the solvent has evaporated, each test tube is filled with 20-50 cattle tick larvae (Rhipicephalus microplus), closed with a perforated lid and incubated in a horizontal position at 85% relative humidity and 27° C. in an incubator. After 48 hours efficacy is determined. The larvae are patted on the ground of the tubes and negative geotactic behavior is recorded.

[6] = system: adult brown dog ticks (Rhipicephalus sanguineus); experiment: Rhipicephalus sanguineus in-vitro contact test, adult brown dog ticks; details: Rhipicephalus sanguineus; 1 μg/cm^2 (=100 g/ha), after 48 hours; read-out: efficacy (ticks dead or moribund)
Method: Rhipicephalus sanguineus—In-Vitro Contact Tests with Adult Brown Dog Ticks
as §5
as §6, with “brown dog ticks (Rhipicephalus sanguineus),” for “cat fleas (Ctenocephalides felis),”, “ticks” for “fleas”, “ticks,” for “fleas,”
An efficacy of 100% means all ticks are dead or moribund; 0% means no ticks are dead or moribund.

[7] = system: brown planthopper (Nilaparvata lugens); experiment: Nilaparvata lugens spray test; details: for mortality at 500 g/ha: Nilaparvata lugens, in Oryza sativa, 96 h; for mortality: 500 g/ha, rice plants, after 4 days
Method: Nilaparvata lugens—Spray Test
as §1, §2
as §3, with “solvents” for “solvent,”, “and” for “and the concentrate”
Rice plants (Oryza sativa) are sprayed with a preparation of the active ingredient of the desired concentration and the plants are infested with the brown planthopper (Nilaparvata lugens).
After 4 days mortality in % is determined. 100% means all planthoppers have been killed and 0% means none of the planthoppers have been killed.

[8] = system: larvae of the banded cucumber beetle (Diabrotica balteata); experiment: Diabrotica balteata spray test; details: 100 g/ha (=32 μg/well), wheat seeds, after 7 days; for pest or weed control at 32 µg/disc, 100 g/ha: Diabrotica balteata, 168 h, read-out: efficacy (seedlings grown)
Method: Diabrotica balteata—Spray Test
as §1, §2, §3
Soaked wheat seeds (Triticum aestivum) are placed in a multiple well plate filled with agar and some water and are incubated for 1 day to germinate (5 seeds per well). The germinated wheat seeds are sprayed with a test solution containing the desired concentration of the active ingredient. Afterwards each unit is infected with 10-20 larvae of the banded cucumber beetle (Diabrotica balteata).
After 7 days efficacy in % is determined. 100% means all the seedlings have grown up like in the untreated, uninfected control; 0% means none of the seedlings have grown.

Row | Compound | mortality at 500 g/ha [1] [%] | mortality at 100 g/ha [2] [%] | mortality at 100 g/ha [4] [%] | pest or weed control at 1 µg/cm2 [5] [%] | pest or weed control at 1 µg/cm2, 100 g/ha [6] [%] | mortality at 500 g/ha [7] [%] | pest or weed control at 32 µg/disc, 100 g/ha [8] [%] | other results
1 | CNC(=O)c1cnc(-n2nc(C)nc2[C@H](C)NC(=O)c2cc(C(F)(F)F)cc(C(F)(F)F)c2)cn1 [Example I-011] | 100 | 90 | 100 | 100 | 100 | – | – | pest or weed control at 1 µg/cm2 [3]: 100%
2 | Cc1nc([C@H](C)NC(=O)c2cc(C(F)(F)F)cc(C(F)(F)F)c2)n(-c2cnc(C(N)=O)cn2)n1 [Example I-012] | 100 | 100 | 100 | 100 | 100 | 100 | – | –
3 | Cc1nc([C@H](C)NC(=O)c2cc(C(F)(F)F)cc(C(F)(F)F)c2)n(-c2cnc(C(=O)NC3CC3)cn2)n1 [Example I-014] | 90 | 90 | 100 | 100 | 100 | 100 | – | –
4 | C[C@H](NC(=O)c1cc(OC(F)(F)F)cc(S(C)(=O)=O)c1)c1ncnn1-c1cnc(C(=O)N(C)C)cn1 [Example I-017] | 100 | 100 | – | 100 | 100 | 100 | 100 | Emax at 4 g/ha [2]: 70%; Emax at 20 g/ha [2]: 90%; Emax at 100 g/ha [2]: 100%; pest or weed control at 1 µg/cm2 [3]: 100%
5 | C[C@H](NC(=O)c1cc(OC(F)(F)F)cc(S(C)(=O)=O)c1)c1ncnn1-c1cnc(C(=O)NC2CC2)cn1 [Example I-020] | 100 | 100 | – | 100 | – | 100 | 100 | –
6 | C[C@H](NC(=O)c1cc(OC(F)(F)F)cc(OC(F)(F)F)c1)c1ncnn1-c1cnc(C(=O)N(C)C2CC2)cn1 [Example I-026] | 100 | – | 100 | 100 | 100 | 100 | 100 | pest or weed control at 1 µg/cm2 [3]: 100%
7 | C[C@H](NC(=O)c1cc(OC(F)(F)F)cc(S(C)(=O)=O)c1)c1ncnn1-c1cnc(C(N)=O)cn1 [Example I-028] | 100 | 90 | 100 | 90 | – | – | 100 | –
8 | Cc1nc([C@H](C)NC(=O)c2cc(OC(F)(F)F)cc(OC(F)(F)F)c2)n(-c2cnc(C(=O)N(C)C3CC3)cn2)n1 [Example I-031] | – | – | 100 | 100 | – | 90 | – | pest or weed control at 1 µg/cm2 [3]: 80%
9 | Cc1nc([C@H](C)NC(=O)c2cc(OC(F)(F)F)cc(C3CC3)c2)n(-c2cnc(C(=O)N(C)C3CC3)cn2)n1 [Example I-032, N-Cyclopropyl-5-(5-{(1S)-1-[3-cyclopropyl-5-(trifluoromethoxy)benzamido]ethyl}-3-methyl-1H-1,2,4-triazol-1-yl)-N-methylpyrazine-2-carboxamide] | – | 90 | 100 | 100 | 80 | 100 | – | pest or weed control at 1 µg/cm2 [3]: 100%
10 | Cc1nc([C@H](C)NC(=O)c2cc(OC(F)(F)F)cc(OC(F)(F)F)c2)n(-c2cnc(C(N)=O)cn2)n1 [Example I-033] | 100 | – | 100 | – | – | – | 100 | –
11 | CNC(=O)c1cnc(-n2nc(C)nc2[C@H](C)NC(=O)c2cc(OC(F)(F)F)cc(OC(F)(F)F)c2)cn1 [Example I-034] | 100 | – | 100 | 100 | 80 | – | 80 | –
12 | Cc1nc([C@H](C)NC(=O)c2cc(C(F)(F)F)cc(S(C)(=O)=O)c2)n(-c2cnc(C(N)=O)cn2)n1 [Example I-051] | – | – | – | – | – | – | – | mortality [1]: 90%; efficacy (larvae dead or moribund) [5]: 100%
13 | C[C@H](NC(=O)c1cc(F)cc(OC(F)(F)F)c1)c1ncnn1-c1cnc(C(N)=O)cn1 [Example I-068] | – | – | – | – | – | – | – | mortality [1]: 90%
14 | Cc1nc([C@H](C)NC(=O)c2cc(F)cc(OC(F)(F)F)c2)n(-c2cnc(C(N)=O)cn2)n1 [Example I-069] | – | – | – | – | – | – | – | mortality [7]: 90%
15 | C[C@H](NC(=O)c1cc(C(F)F)cc(C(F)F)c1)c1nc(C2CC2)nn1-c1cnc(C(N)=O)cn1 [Example I-071] | – | – | – | – | – | – | – | mortality [7]: 90%; mortality [1]: 90%; efficacy (seedlings grown) [8]: 100%
16 | C[C@H](NC(=O)c1cc(OC(F)(F)F)cc(C2(C#N)CC2)c1)c1nc(C2CC2)nn1-c1cnc(C(N)=O)cn1 [Example I-072] | – | – | – | – | – | – | – | mortality [7]: 90%; mortality [1]: 90%; efficacy (seedlings grown) [8]: 100%
17 | C[C@H](NC(=O)c1cc(C(F)F)nc(C(F)F)c1)c1nc(C2CC2)nn1-c1cnc(C(N)=O)cn1 [Example I-094, 5-[5-[(1S)-1-[[2,6-bis(difluoromethyl)pyridine-4-carbonyl]amino]ethyl]-3-cyclopropyl-1,2,4-triazol-1-yl]pyrazine-2-carboxamide] | 100 | – | 83 | – | – | – | 100 | –
18 | C=C(CC)c1ccc(C2C=CC=C2[C@H](C)CC(=C)c2cc(C)cc(C(C)(C)C)c2)cc1 (stereo partly shown) [I-038 Known from WO2019206799, reference compound] | – | – | – | – | – | – | – | Emax at 4 g/ha [2]: 0%; Emax at 20 g/ha [2]: 70%; Emax at 100 g/ha [2]: 100%; Emax at 4 g/ha ([4]; SPODFR, 4 g ai/ha, 7 dat, read-out: % Efficacy): 0%; Emax at 20 g/ha ([4]; SPODFR, 20 g ai/ha, 7 dat, read-out: % Efficacy): 100%; Emax at 100 g/ha ([4]; SPODFR, 100 g ai/ha, 7 dat, read-out: % Efficacy): 100%
